Measured values reported in patent US8404650B2, “Methods of treating cancer with doxazolidine and prodrugs thereof” (priority 2005, dated 2013).

Key:
cancer cells = settings: background statement; cited from earlier work
DU-145 = assay: Growth inhibition of DU-145 prostate cancer cells; assay type: cell-based
Experimental: (§1) In vitro Activity. […] This cell suspension was dispensed in 200 μL aliquots (1000 cells/well) into the inside wells of 96-well tissue culture plates. Outside wells contained 200 μL of media. […] The medium was replaced with 90 μL of growth medium prior to addition of the drug. Doxaz was dissolved in DMSO at concentrations ranging from 50 μM to 1 mM. […] Serial dilutions (1:3 and 1:10) were made in sterile DMSO to yield seven solutions of decreasing drug concentration at 100× the respective working concentrations. […] Additionally, two lanes were treated with 10 μL of growth medium containing 10% sterile DMSO and one lane was treated with 90 μL of 1.5 M Tris HCl. […]
(§2) SHP-77 small cell lung cancer cells were also of interest because they express modest amounts of both enzymes. Inhibition of the growth of cardiomyocytes was used as a measure of cardiotoxicity, and inhibition of the growth of Vero cells, green monkey kidney cells, was again used as another measure of toxicity to normal cells.
A more thorough characterization of the growth inhibition of a variety of cancer cells as well as rat cardiomyocytes by Formula IV (aFK-PABC-Doxaz) was evaluated in comparison with inhibition of growth by Doxaz, Dox and aFK-PABC-Dox. […] […] The breast cancer cell lines represent the multi-drug resistant (MDR) phenotype with MCF-7/Adr cells and a cell line that is transfected with the gene for urokinase plasminogen activator (uPA), the primary enzyme responsible for cleavage of plasminogen to plasmin. Rat cardiomyocytes served as a model for comparison of drug cardiotoxicity.

[1] = buffer; cited from earlier work
MCF-7/Adr = assay: Growth inhibition of multidrug resistant MCF-7/Adr breast cancer cells (crystal violet); assay type: cell-based
Experimental: as §1
(§3) Cell growth inhibition experiments initially focused on MCF-7, MCF-7/Adr, SK-HEP-1, and Hep G2 cancer cells as well as rat cardiomyocytes as a measure of cardiotoxicity and Vero cells (green monkey kidney cells) as an additional measure of normal cell toxicity.
(§4) Activity of plasmin-activated prodrugs.
(§5) A more thorough characterization of the growth inhibition of a variety of cancer cells as well as rat cardiomyocytes by Formula IV (aFK-PABC-Doxaz) was evaluated in comparison with inhibition of growth by Doxaz, Dox and aFK-PABC-Dox. Cells were treated with drug for 3 h and colony growth was measured at 3 to 5 days when cells reached about 80% confluence. […] The breast cancer cell lines represent the multi-drug resistant (MDR) phenotype with MCF-7/Adr cells and a cell line that is transfected with the gene for urokinase plasminogen activator (uPA), the primary enzyme responsible for cleavage of plasminogen to plasmin. Rat cardiomyocytes served as a model for comparison of drug cardiotoxicity.

MCF-7 = assay: Growth inhibition of MCF-7 sensitive breast cancer cells (colony formation, crystal violet); assay type: cell-based, human
Experimental: as §1, §3, §4, §5

αvβ3 integrin = αvβ3 integrin (Homo sapiens, UniProt P05106+P06756); settings: cited from earlier work
Chain of αvβ3 integrin (P06756 31-889 limits assumed): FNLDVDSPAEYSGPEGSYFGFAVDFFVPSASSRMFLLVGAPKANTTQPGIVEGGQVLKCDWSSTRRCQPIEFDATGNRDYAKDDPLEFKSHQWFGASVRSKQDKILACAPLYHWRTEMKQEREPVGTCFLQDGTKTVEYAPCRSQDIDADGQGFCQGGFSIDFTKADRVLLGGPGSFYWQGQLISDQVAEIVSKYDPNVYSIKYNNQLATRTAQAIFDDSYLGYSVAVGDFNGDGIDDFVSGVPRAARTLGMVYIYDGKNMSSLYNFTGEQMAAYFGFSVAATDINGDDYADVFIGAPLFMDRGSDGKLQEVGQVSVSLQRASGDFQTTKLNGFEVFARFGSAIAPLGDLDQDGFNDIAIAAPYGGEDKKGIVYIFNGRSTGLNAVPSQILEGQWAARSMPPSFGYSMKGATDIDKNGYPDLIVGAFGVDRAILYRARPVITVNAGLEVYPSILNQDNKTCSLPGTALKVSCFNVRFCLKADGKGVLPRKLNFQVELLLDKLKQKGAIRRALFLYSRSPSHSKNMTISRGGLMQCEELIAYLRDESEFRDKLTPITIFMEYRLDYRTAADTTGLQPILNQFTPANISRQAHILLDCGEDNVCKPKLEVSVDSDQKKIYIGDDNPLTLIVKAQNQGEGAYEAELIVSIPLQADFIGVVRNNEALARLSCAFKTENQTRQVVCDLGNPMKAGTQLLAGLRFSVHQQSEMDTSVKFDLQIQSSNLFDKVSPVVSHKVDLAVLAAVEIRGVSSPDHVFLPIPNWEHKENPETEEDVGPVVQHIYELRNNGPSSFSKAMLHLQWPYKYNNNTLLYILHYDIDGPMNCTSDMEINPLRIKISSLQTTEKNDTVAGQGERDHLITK
Chain of αvβ3 integrin (P06756 891-1048 partner limits assumed): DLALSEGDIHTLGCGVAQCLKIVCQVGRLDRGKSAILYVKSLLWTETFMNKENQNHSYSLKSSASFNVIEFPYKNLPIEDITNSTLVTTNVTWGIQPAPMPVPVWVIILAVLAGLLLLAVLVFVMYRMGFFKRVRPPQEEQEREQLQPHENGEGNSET
Chain of αvβ3 integrin (P05106 27-788): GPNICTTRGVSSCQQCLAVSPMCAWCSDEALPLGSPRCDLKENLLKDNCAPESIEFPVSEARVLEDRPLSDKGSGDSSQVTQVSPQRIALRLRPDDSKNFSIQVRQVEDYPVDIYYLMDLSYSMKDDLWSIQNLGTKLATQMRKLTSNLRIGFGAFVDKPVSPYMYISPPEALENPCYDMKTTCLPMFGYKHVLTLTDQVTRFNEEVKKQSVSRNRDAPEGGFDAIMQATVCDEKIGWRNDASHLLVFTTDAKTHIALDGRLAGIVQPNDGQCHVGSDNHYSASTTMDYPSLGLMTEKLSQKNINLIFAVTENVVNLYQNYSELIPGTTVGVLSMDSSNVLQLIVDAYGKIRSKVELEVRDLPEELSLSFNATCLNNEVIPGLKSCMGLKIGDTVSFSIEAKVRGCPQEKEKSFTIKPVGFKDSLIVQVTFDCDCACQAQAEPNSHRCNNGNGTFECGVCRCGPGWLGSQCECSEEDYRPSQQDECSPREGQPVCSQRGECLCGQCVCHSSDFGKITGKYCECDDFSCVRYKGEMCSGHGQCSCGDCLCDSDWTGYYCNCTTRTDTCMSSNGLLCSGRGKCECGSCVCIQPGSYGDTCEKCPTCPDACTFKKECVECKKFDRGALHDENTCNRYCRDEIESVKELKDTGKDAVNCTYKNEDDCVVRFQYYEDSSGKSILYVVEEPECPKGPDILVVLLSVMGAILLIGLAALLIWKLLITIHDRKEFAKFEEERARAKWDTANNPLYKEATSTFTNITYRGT

[2] = Hydrolytic stability of Doxaz carbamate prodrugs in aqueous media; assay type: physicochemical; settings: pH 7.4 buffer, no cells or growth media, 24 h, ambient temperature, HPLC
[3] = system: H9c2(2-1) rat cardiomyocytes; assay: Growth inhibition of rat cardiomyocytes as a measure of cardiotoxicity; assay type: cell-based; settings: 24 h drug treatment; crystal violet
Experimental: Biological activity of simple Doxazolidine carbamates. Since the prodrug carbamates were designed to be activated by carboxylesterases CES1 (hCE1) and/or CES2 (hiCE), cell lines of interest were measured for expression of the respective mRNAs using reverse transcription (RT) followed by PCR (polymerase chain reaction). Cancer cell lines investigated included SHP-77 resistant small cell lung, DU-145 prostate, MCF-7 sensitive breast, MCF-7/Adr resistant breast, SK-HEP-1 liver, and Hep G2 liver cells. As a measure of possible cardiotoxicity, H9c2(2-1) rat cardiomyocytes were also investigated. Cardiotoxicity is relevant because the ultimate product of metabolism and subsequent hydrolysis of these carbamates is doxorubicin, which is cardiotoxic. […] Additionally, the rat cardiomyocytes, H9c2(2-1), also express more CES2 than CES1.
Cell growth inhibition experiments initially focused on MCF-7, MCF-7/Adr, SK-HEP-1, and Hep G2 cancer cells as well as rat cardiomyocytes as a measure of cardiotoxicity and Vero cells (green monkey kidney cells) as an additional measure of normal cell toxicity. The butyl and pentyl carbamates inhibited the growth of MCF-7, MCF-7/Adr, and SK-HEP-1 cell lines with a 24 h drug treatment period with some selectivity for cancer cells over cardiomyocytes relative to growth inhibition by Dox as shown in Table 2. […] The relative inactivity of the ethyl carbamate may indicate that a substantial lipophilic interaction is required at the active site of the carboxylesterases to hold the Doxaz substrate.
Biological activity of Doxazolidine carbamates with self-eliminating spacer. […] SHP-77 small cell lung cancer cells were also of interest because they express modest amounts of both enzymes. Inhibition of the growth of cardiomyocytes was used as a measure of cardiotoxicity, and inhibition of the growth of Vero cells, green monkey kidney cells, was again used as another measure of toxicity to normal cells. They also show more activity against the cancer cells that express higher levels of CES1. Of particular note is the higher activity against Hep G2 cells than against SK-HEP-1 cells. […] The low toxicity of pentyl PABC-Doxaz to cardiomyocytes relative to the toxicity of Dox is encouraging and consistent with the low level of expression of CES1 in cardiomyocytes.
A more thorough characterization of the growth inhibition of a variety of cancer cells as well as rat cardiomyocytes by Formula IV (aFK-PABC-Doxaz) was evaluated in comparison with inhibition of growth by Doxaz, Dox and aFK-PABC-Dox. Cells were treated with drug for 3 h and colony growth was measured at 3 to 5 days when cells reached about 80% confluence. The cancer cells included one prostate cancer cell line (DU-145), three related breast cancer cell lines (MCF-7, MCF-7/Adr, and MCF-7 uPA), and one pancreatic cancer cell line (Mia PaCa-2). The breast cancer cell lines represent the multi-drug resistant (MDR) phenotype with MCF-7/Adr cells and a cell line that is transfected with the gene for urokinase plasminogen activator (uPA), the primary enzyme responsible for cleavage of plasminogen to plasmin. Rat cardiomyocytes served as a model for comparison of drug cardiotoxicity. Growth inhibition was also measured with added plasmin. aFK-PABC-Doxaz inhibited the growth of most of the cancer cells 0.5 log or more better than did aFK-PABA-Dox. Although not as dramatic, this differential response paralleled the differential response between Doxaz and Dox which is approximately two logs except for the MDR expressing, MCF-7/Adr cells which show more than three logs differential response. […] Addition of 0.01 unit/mL of plasmin has no effect on the activity of Dox but increases the activity of both aFK-PABC-Doxaz and aFK-PABC-Dox, in some cases by more than a log. Addition of 0.01 unit/mL plasminogen increases the activity of aFK-PABC-Doxaz on average by 0.3 log. […]

Vero cells = assay: Growth inhibition of Vero cells as a measure of normal cell toxicity (MTT); assay type: cell-based, green monkey
Text: as §3, §2

[4] = Uptake of pentyl carbamate relative to Dox, flow cytometry, with and without fetal bovine serum; assay type: cell-based
Experimental: Uptake of the pentyl carbamate relative to uptake of Dox was measured by flow cytometry, monitoring fluorescence of the Dox fluorophore as a measure of drug in cells. The measurements were performed over a period of 3 h in the presence and absence of fetal bovine serum, and the results are shown in FIG. 4. […] Further, the presence of 10% fetal bovine serum decreased the uptake of doxorubicin and the pentyl carbamate by about 25%. The more rapid uptake of the pentyl carbamate in the presence and absence of serum probably reflects its increased hydrophobicity relative to that of doxorubicin which is a cation at physiological pH. Increased hydrophobicity may also be the explanation for the effect of serum on the uptake of the carbamate; namely, the carbamate binds to serum proteins reducing drug uptake.

Hep G2 = assay: Growth inhibition of Hep G2 liver cancer cells; assay type: cell-based, human; settings: crystal violet
Text: (§6) Cell growth inhibition experiments initially focused on MCF-7, MCF-7/Adr, SK-HEP-1, and Hep G2 cancer cells as well as rat cardiomyocytes as a measure of cardiotoxicity and Vero cells (green monkey kidney cells) as an additional measure of normal cell toxicity. […]

SHP-77 = assay: Growth inhibition of SHP-77 small cell lung cancer cells; assay type: cell-based; settings: 24 h drug treatment; crystal violet
Text: as §2

SK-HEP-1 = assay: Growth inhibition of SK-HEP-1 liver cancer cells; assay type: cell-based, human; settings: crystal violet
Text: as §6

[5] = 24 h drug treatment, crystal violet

Compound: COc1cccc2c1C(=O)c1c(O)c3c(c(O)c1C2=O)C[C@@](O)(C(=O)CO)C[C@@H]3O[C@H]1C[C@H]2C(OCN3CN2CO[C@H]2[C@@H](C)O[C@@H](O[C@H]4C[C@](O)(C(=O)CO)Cc5c(O)c6c(c(O)c54)C(=O)c4c(OC)cccc4C6=O)C[C@@H]23)[C@H](C)O1 (stereo partly drawn) [EpiF, Epidoxoform, reference compound]
- Less active than DoxF in cancer cell growth inhibition (cancer cells): 50 fold
- IC50 (DU-145; Homo sapiens, DU-145, 3 h, read-out: IC50 DU-145): 0.026 ± 0.005 µM
- Half-life, stability in water with respect to loss of formaldehyde [1]: 2 h
- IC50 (MCF-7/Adr; Homo sapiens, NCI/ADR-RES, 3 h, read-out: IC50 MCF-7/Adr): 0.07 µM
- IC50 (MCF-7; Homo sapiens, MCF7, 3 h, read-out: IC50 MCF-7): 0.065 µM

Compound: Lys-Arg-Gly-Asp-phe (KRGD; C-terminal D-Phe; printed: Lys-Arg-Gly-Asp-) [KRGDf]
- Specificity for αvβ3 over αIIbβ3 platelet receptor (αvβ3 integrin): 1000 fold

Compound: CCCCCOC(=O)N1COC2C(C)OC(OC3CC(O)(C(=O)CO)Cc4c(O)c5c(c(O)c43)C(=O)c3c(OC)cccc3C5=O)CC21 (stereo not drawn) [Doxaz Pentyl Carbamate]
- Cell growth inhibition IC50, DU-145 (DU-145; [5]): −6.0 ± 0.04 log of molar concentrations
- Stability to hydrolysis in buffer [2]: stable to hydrolysis
- Growth inhibition IC50, H9c2(2-1), 24 h [3]: −6.6 ± 0.1 log of the molar concentration
- Growth inhibition IC50, Vero, 3 h (Vero cells; 3 h drug treatment): −5.4 ± 0.1 log of the molar concentration
- Growth inhibition IC50, Vero, 24 h (Vero cells; 24 h drug treatment): −5.3 ± 0.01 log of the molar concentration
- Decrease of uptake by 10% fetal bovine serum ([4]; 10% fetal bovine serum, flow cytometry, 3 h): about 25%
- Uptake relative to Dox ([4]; flow cytometry over 3 h, with and without serum): taken up at a higher level and more rapidly than Dox
- Growth inhibition IC50, Hep G2, 3 h (Hep G2; 3 h drug treatment): >−6 log of the molar concentration
- Growth inhibition IC50, Hep G2, 24 h (Hep G2; 24 h drug treatment): −6.5 ± 0.3 log of the molar concentration
- Growth inhibition IC50, MCF-7/Adr, 24 h (MCF-7/Adr; [5]): −6.0 ± 0.09 log of the molar concentration
- Growth inhibition IC50, MCF-7, 3 h (MCF-7; 3 h drug treatment, crystal violet): >−6 log of the molar concentration
- Growth inhibition IC50, MCF-7, 24 h (MCF-7; [5]): −6.1 ± 0.03 log of the molar concentration
- Cell growth inhibition IC50, SHP-77 (SHP-77): −6.3 ± 0.3 log of molar concentrations
- Growth inhibition IC50, SK-HEP-1, 3 h (SK-HEP-1; 3 h drug treatment): >−6 log of the molar concentration
- Growth inhibition IC50, SK-HEP-1, 24 h (SK-HEP-1; 24 h drug treatment): −6.7 ± 0.1 log of the molar concentration
